{"source": "patent US9173906B2", "about": "“Methods and compositions for tissue regeneration” (SMITH & NEPHEW, INC., priority 2002, dated 2015)", "experiment_in_all_cases": "Mitomycin C growth arrest of fibroblasts (weekly cell counting, colony inspection)", "key": {"[1]": {"system": "rat fibroblast cell line (CRL 1213)", "type": "cell-based", "details": "MMC treatment for 5 h", "experimental": "(§1) The rat fibroblast cell line (CRL 1213), the FGF1-transfected rat fibroblast cell line (1175/CRL 1213), the human telomerase immortalized fibroblast line (MDX12), and the primary human fibroblasts (EDX1) were each growth arrested using the following method. Fibroblasts were grown in DMEM+10% FCS, 25 mM Hepes, 1 mM pyruvate, 2 mM L-Gln, 100 U/ml penicillin, 100 μg/ml streptomycin in T75 flasks. […] The cells were then rinsed with PBS and detached with 0.05% trypsin/0.02% EDTA. The remaining cells were plated at densities of 100 to 5000 cells/cm^2 in T25-flasks respectively (10 flasks for each density). These cells were incubated at 37° C. with 2 media changes per week.\n(§2) Efficiency of cell growth arrest was measured by weekly counting of cells (using a hemacytometer) cultured in the flasks plated at a density of 5000 cells/cm^2 and by inspection of appearing colonies in the flasks plated at a density of 100 cells/cm^2. Changes in cell morphology were also examined."}, "[2]": {"system": "FGF1-transfected rat fibroblast cell line (1175/CRL 1213)", "type": "cell-based", "experimental": "as §1, §2"}, "[3]": {"system": "human telomerase immortalized fibroblast line (MDX12)", "details": "MMC treatment for 5 h", "experimental": "as §1, §2"}, "[4]": {"system": "primary human fibroblasts (EDX1)", "details": "MMC treatment for 5 h", "experimental": "as §1, §2"}}, "data": [{"smiles": "CO[C@@]12[C@H](COC(N)=O)C3=C(C(=O)C(C)=C(N)C3=O)N1C[C@@H]1N[C@@H]12", "note": "[mitomycin C]", "values": [{"measurement": "concentration optimal to growth arrest", "setting": "[1]", "result": 2, "unit": "µg/mL"}, {"measurement": "efficacy of concentrations below 1 μg/ml", "setting": "[2]", "result": "not efficacious"}, {"measurement": "concentration at which cells were growth arrested", "setting": "[2]; MMC treatment for 5 h", "result": 1, "unit": "µg/mL"}, {"measurement": "concentration sufficient to growth arrest", "setting": "[3]", "result": 8, "unit": "µg/mL"}, {"measurement": "concentration sufficient to growth arrest", "setting": "[4]", "result": 8, "unit": "µg/mL"}]}]}
